Test results from patent publication US20210267204A1, “MICROBIOCIDAL OXADIAZOLE DERIVATIVES” (SYNGENTA CROP PROTECTION AG, priority 2018, published 2021).

Assays:
[1] = system: Puccinia recondita f. sp. tritici; assay: Fungicidal activity against Puccinia recondita f. sp. tritici / wheat / leaf disc preventative (brown rust); type: in vivo; settings: foliar, 200 ppm in the applied formulation, wheat leaf segments cv. Kanzler, inoculated 1 day after application, assessed 7 to 9 days after application, compared to untreated, read-out: disease control
Protocol: Leaf disks or leaf segments of various plant species are cut from plants grown in a greenhouse. The cut leaf disks or segments are placed in multiwell plates (24-well format) onto water agar. The leaf disks are sprayed with a test solution before (preventative) or after (curative) inoculation. Compounds to be tested are prepared as DMSO solutions (max. 10 mg/mL) which are diluted to the appropriate concentration with 0.025% Tween20 just before spraying. The inoculated leaf disks or segments are incubated under defined conditions (temperature, relative humidity, light, etc.) according to the respective test system. A single evaluation of disease level is carried out 3 to 14 days after inoculation, depending on the pathosystem. Percent disease control relative to the untreated check leaf disks or segments is then calculated. Wheat leaf segments cv. Kanzler were placed on agar in multiwell plates (24-well format) and sprayed with the formulated test compound diluted in water. The leaf disks were inoculated with a spore suspension of the fungus 1 day after application. The inoculated leaf segments were incubated at 19° C. and 75% relative humidity (rh) under a light regime of 12 hours light/12 hours darkness in a climate cabinet and the activity of a compound was assessed as percent disease control compared to untreated when an appropriate level of disease damage appears in untreated check leaf segments (7 to 9 days after application). The following compounds at 200 ppm in the applied formulation give at least 80% disease control in this test when compared to untreated control leaf disks under the same conditions, which show extensive disease development.

[2] = system: Phakopsora pachyrhizi; assay: Fungicidal activity against Phakopsora pachyrhizi / soybean / leaf disc preventative (Asian soybean rust); type: in vivo; settings: foliar, 200 ppm in the applied formulation, soybean leaf disks, inoculated one day after application, assessed 12 to 14 days after application, compared to untreated, read-out: disease control
Protocol: Leaf disks or leaf segments of various plant species are cut from plants grown in a greenhouse. The cut leaf disks or segments are placed in multiwell plates (24-well format) onto water agar. The leaf disks are sprayed with a test solution before (preventative) or after (curative) inoculation. Compounds to be tested are prepared as DMSO solutions (max. 10 mg/mL) which are diluted to the appropriate concentration with 0.025% Tween20 just before spraying. The inoculated leaf disks or segments are incubated under defined conditions (temperature, relative humidity, light, etc.) according to the respective test system. A single evaluation of disease level is carried out 3 to 14 days after inoculation, depending on the pathosystem. Percent disease control relative to the untreated check leaf disks or segments is then calculated. Soybean leaf disks are placed on water agar in multiwell plates (24-well format) and sprayed with the formulated test compound diluted in water. One day after application leaf discs are inoculated by spraying a spore suspension on the lower leaf surface. After an incubation period in a climate cabinet of 24-36 hours in darkness at 20° C. and 75% rh leaf disc are kept at 20° C. with 12 hours light/day and 75% rh. The activity of a compound is assessed as percent disease control compared to untreated when an appropriate level of disease damage appears in untreated check leaf disks (12 to 14 days after application). The following compounds at 200 ppm in the applied formulation give at least 80% disease control in this test when compared to untreated control leaf disks under the same conditions, which show extensive disease development.

[3] = system: Puccinia recondita f. sp. tritici; assay: Fungicidal activity against Puccinia recondita f. sp. tritici / wheat / leaf disc curative (brown rust); type: in vivo; settings: foliar, 200 ppm in the applied formulation, wheat leaf segments cv. Kanzler, applied 1 day after inoculation, assessed 6 to 8 days after application, compared to untreated, read-out: disease control
Protocol: Leaf disks or leaf segments of various plant species are cut from plants grown in a greenhouse. The cut leaf disks or segments are placed in multiwell plates (24-well format) onto water agar. The leaf disks are sprayed with a test solution before (preventative) or after (curative) inoculation. Compounds to be tested are prepared as DMSO solutions (max. 10 mg/mL) which are diluted to the appropriate concentration with 0.025% Tween20 just before spraying. The inoculated leaf disks or segments are incubated under defined conditions (temperature, relative humidity, light, etc.) according to the respective test system. A single evaluation of disease level is carried out 3 to 14 days after inoculation, depending on the pathosystem. Percent disease control relative to the untreated check leaf disks or segments is then calculated. Wheat leaf segments cv. Kanzler are placed on agar in multiwell plates (24-well format). The leaf segments are then inoculated with a spore suspension of the fungus. Plates were stored in darkness at 19° C. and 75% relative humidity. The formulated test compound diluted in water was applied 1 day after inoculation. The leaf segments were incubated at 19° C. and 75% relative humidity under a light regime of 12 hours light/12 hours darkness in a climate cabinet and the activity of a compound was assessed as percent disease control compared to untreated when an appropriate level of disease damage appears in untreated check leaf segments (6 to 8 days after application). The following compounds at 200 ppm in the applied formulation give at least 80% disease control in this test when compared to untreated control leaf disks under the same conditions, which show extensive disease development.

[4] = system: Glomerella lagenarium (Colletotrichum lagenarium); assay: Fungicidal activity against Glomerella lagenarium (Colletotrichum lagenarium) liquid culture / cucumber / preventative (anthracnose); type: cell-based; settings: Colletotrichum orbiculare; 20 ppm in the applied formulation; liquid culture in PDB, 24° C.; 3 to 4 days after application; compared to untreated control; read-out: disease control (inhibition of growth measured photometrically)
Protocol: Mycelia fragments or conidia suspensions of a fungus prepared either freshly from liquid cultures of the fungus or from cryogenic storage, are directly mixed into nutrient broth. DMSO solutions of the test compound (max. 10 mg/mL) are diluted with 0.025% Tween20 by a factor of 50 and 10 μL of this solution is pipetted into a microtiter plate (96-well format). The nutrient broth containing the fungal spores/mycelia fragments is then added to give an end concentration of the tested compound. The test plates are incubated in the dark at 24° C. and 96% relative humidity (rh). The inhibition of fungal growth is determined photometrically after 2 to 7 days, depending on the pathosystem, and percent antifungal activity relative to the untreated check is calculated. Conidia of the fungus from cryogenic storage are directly mixed into nutrient broth (PDB—potato dextrose broth). After placing a (DMSO) solution of test compound into a microtiter plate (96-well format), the nutrient broth containing the fungal spores is added. The test plates are incubated at 24° C. and the inhibition of growth is measured photometrically 3 to 4 days after application. The following compounds at 20 ppm in the applied formulation give at least 80% disease control in this test when compared to untreated control under the same conditions, which show extensive disease development.

| Structure (SMILES) | pest or weed control at 200 ppm [1] [%] | pest or weed control at 200 ppm [2] [%] | pest or weed control at 200 ppm [3] [%] | inhibition at 20 ppm [4] [%] | melting point [°C] |
| --- | --- | --- | --- | --- | --- |
| CNC(=S)c1ccnn1Cc1ccc(-c2noc(C(F)(F)F)n2)cc1 [Compound 1.1, N-methyl-2-[[4-[5-(trifluoromethyl)-1,2,4-oxadiazol-3-yl]phenyl]methyl] pyrazole-3-carbothioamide] | ≥ 80 | ≥ 80 | ≥ 80 | ≥ 80 | 159 to 164 |
| CN(C)C(=S)c1ncn(Cc2ccc(-c3noc(C(F)(F)F)n3)cc2)n1 [Compound 1.2, N,N-dimethyl-1-[[4-[5-(trifluoromethyl)-1,2,4-oxadiazol-3-yl]phenyl]methyl]-1,2,4-triazole-3-carbothioamide] | ≥ 80 | ≥ 80 | ≥ 80 | ≥ 80 |  |
| FC(F)(F)c1nc(-c2ccc(Cn3ccc(C(=S)NC4CC4)n3)cc2)no1 [Compound 1.3, N-cyclopropyl-1-[[4-[5-(trifluoromethyl)-1,2,4-oxadiazol-3-yl]phenyl]methyl] pyrazole-3-carbothioamide] | ≥ 80 | ≥ 80 | ≥ 80 | ≥ 80 |  |
| CNC(=S)c1ncnn1Cc1ccc(-c2noc(C(F)(F)F)n2)cc1 [Compound 1.4, N-methyl-2-[[4-[5-(trifluoromethyl)-1,2,4-oxadiazol-3-yl]phenyl]methyl]-1,2,4-triazole-3-carbothioamide] | ≥ 80 | ≥ 80 | ≥ 80 | ≥ 80 |  |
| CNC(=S)c1ncnn1Cc1ccc(-c2noc(C(F)(F)F)n2)s1 [Compound 1.5, N-methyl-2-[[5-[5-(trifluoromethyl)-1,2,4-oxadiazol-3-yl]-2-thienyl]methyl]-1,2,4-triazole-3-carbothioamide] | ≥ 80 | ≥ 80 | ≥ 80 | ≥ 80 | 86 to 95 |
| CNC(=S)c1ccn(Cc2ccc(-c3noc(C(F)(F)F)n3)s2)n1 [Compound 1.6, N-methyl-1-[[5-[5-(trifluoromethyl)-1,2,4-oxadiazol-3-yl]-2-thienyl]methyl]pyrazole-3-carbothioamide] | ≥ 80 | ≥ 80 | ≥ 80 | ≥ 80 | 118 to 122 |
| CCONC(=S)c1ccn(Cc2ccc(-c3noc(C(F)(F)F)n3)s2)n1 [Compound 1.7, N-ethoxy-1-[[5-[5-(trifluoromethyl)-1,2,4-oxadiazol-3-yl]-2-thienyl]methyl]pyrazole-3-carbothioamide] | ≥ 80 | ≥ 80 | ≥ 80 | ≥ 80 |  |
| CN(C)C(=S)c1ncn(Cc2ccc(-c3noc(C(F)(F)F)n3)s2)n1 [Compound 1.8, N,N-dimethyl-1-[[5-[5-(trifluoromethyl)-1,2,4-oxadiazol-3-yl]-2-thienyl]methyl]-1,2,4-triazole-3-carbothioamide] | ≥ 80 | ≥ 80 | ≥ 80 | ≥ 80 | 112 to 118 |
| CNC(=S)c1cnn(C(C)c2ccc(-c3noc(C(F)(F)F)n3)s2)c1 (stereo not drawn) [Compound 1.9, N-methyl-1-[1-[5-[5-(trifluoromethyl)-1,2,4-oxadiazol-3-yl]-2-thienyl]ethyl]pyrazole-4-carbothioamide] | ≥ 80 | ≥ 80 | ≥ 80 | ≥ 80 |  |
| CC(c1ccc(-c2noc(C(F)(F)F)n2)s1)n1cc(C(=S)N2CCC2)cn1 (stereo not drawn) [Compound 1.10, azetidin-1-yl-[1-[1-[5-[5-(trifluoromethyl)-1,2,4-oxadiazol-3-yl]-2-thienyl]ethyl]pyrazol-4-yl]methanethione] | ≥ 80 | ≥ 80 | ≥ 80 | ≥ 80 | 75 to 83 |
| FC(F)(F)c1nc(-c2ccc(Cn3ccnc3C(=S)NC3CC3)s2)no1 [Compound 1.11, N-cyclopropyl-1-[[5-[5-(trifluoromethyl)-1,2,4-oxadiazol-3-yl]-2-thienyl]methyl] imidazole-2-carbothioamide] | ≥ 80 | ≥ 80 | ≥ 80 | ≥ 80 |  |
| NC(=S)c1nccn1Cc1ccc(-c2noc(C(F)(F)F)n2)s1 [Compound 1.12, 1-[[5-[5-(trifluoromethyl)-1,2,4-oxadiazol-3-yl]-2-thienyl]methyl] imidazole-2-carbothioamide] | ≥ 80 | ≥ 80 | ≥ 80 | ≥ 80 | 170 to 172 |
| FC(F)(F)c1nc(-c2ccc(Cn3cc(CNC(=S)C4CC4)cn3)s2)no1 [Compound 1.13, N-[[1-[[5-[5-(trifluoromethyl)-1,2,4-oxadiazol-3-yl]-2-thienyl]methyl]pyrazol-4-yl]methyl] cyclopropane carbothioamide] | ≥ 80 | ≥ 80 | ≥ 80 | ≥ 80 | 165.5 to 167 |
| CCCNC(=S)c1nccn1Cc1ccc(-c2noc(C(F)(F)F)n2)s1 [Compound 1.15, N-propyl-1-[[5-[5-(trifluoromethyl)-1,2,4-oxadiazol-3-yl]-2-thienyl]methyl] imidazole-2-carbothioamide] | ≥ 80 | ≥ 80 | ≥ 80 | ≥ 80 |  |
